Data taken from patent US9476099B2 (TRUSTEES OF DARTMOUTH COLLEGE, priority 2012, dated 2016).

Assays:
[1] = test system: NT2/D1 cells; experiment: Cell-Titre Glo viable cell growth and survival, 3 day decitabine; format: cell-based; conditions: NT2/D1
Description: Indicated doses of decitabine were added fresh each day for three days to exponentially growing cultures. Viable cell growth and survival were measured. Data are normalized to no drug treatment. EC cells are NT2/D1, NT2D1/R1, 833K, 833KCP, and Tera-1. Data are the average of 3 experiments in biological duplicate except for MCF-7 cells, which were assayed twice. Error bars are standard deviation (S.D.).
Cell growth and viability of five EC cell lines (NT2/D1, NT2D1/R1, 833K, 833KCP, and Tera-1) were determined, including two cell lines that are cisplatin-resistant (NT2/D1-R1 and 833KCP). Three control somatic tumor cell lines were also tested (HCT116, MCF7 and U2OS). […] Viable cell growth and survival were measured using Cell-Titre Glo (Promega) assays. […] These higher values are similar to the values shown in FIG. 1 for somatic tumor cell lines (MCF7, U2OS and HCT116).
NT2/D1, NT2D1-R1, 833K, 833K-CP, Tera-1, U20S, and HCT116 cells were cultured in DMEM with 10% FBS supplemented with glutamine and antibiotics except for MCF7 cells that were cultured in F12-DMEM. The derivation of the NT2/D1-resistant NT2/D1-R1 cell line has been previously described (Curtin et al. 2001. Oncogene 20:2559-2569; Kerley-Hamilton et al. 2007. Biochim. Biophys. Acta 1769:209-219). Cells were treated with the indicated dosages of 5-azadeoxycytidine (5-aza-CdR) for 3 days. This drug was replenished each day. Cisplatin (Bristol Laboratories) treatments were performed at the concentrations and time points indicated. To assess cell proliferation and survival, CELL-TITRE GLO (Promega) assays were performed.
(§1) Cells were cultured in DMEM media (Gibco) with 10% FBS. Decitabine was added fresh each day. Lentiviral control cells and the stable shRNA DNMT3B knockdown cell line (NT2/D1-R1-sh84) were described previously (Beyrouthy et al. 2009. Cancer Res. 69:9360-9366). DNMT3B knockdown was greater than 90% as confirmed by western blot analysis. Cell proliferation and survival were assessed with the CELL-TITRE GLO assay (Promega). Cell cycle analysis with propidium iodine has been previously described (Kerley-Hamilton et al. 2005. Oncogene 24:6090-6100).

[2] = test system: NT2/D1 cells; experiment: Apoptosis by PARP cleavage and sub G1 DNA content; format: cell-based; conditions: cisplatin 0.5 μM; NT2/D1 versus NT2/D1-R1
Description: as §1
(§2) SYBR green-based real-time PCR (Applied Biosystems) was employed using the ddCT method normalized to GAPDH. For western blot analysis cells were lysed in radioimmune precipitation buffer and separated by SDS-PAGE. Antibodies to actin (sc01615, Santa Cruz), 139-H2AX (Cell Signaling), PARP (c-2-10, Biomol International) and p53 (D0-1, Santa Cruz) were used.

[3] = test system: NT2/D1-R1 cells; experiment: Apoptosis by PARP cleavage and sub G1 DNA content; format: cell-based; conditions: cisplatin; cisplatin-resistant NT2/D1-R1
Description: (§3) Importantly, decitabine-mediated H2AX activation also occurs in the presence of the caspase 3 inhibitor (Z-VAD-FMK) at concentrations that inhibit PARP cleavage.
as §1, §2

[4] = test system: phosphorylated H2AX in NT2/D1-R1 cells; experiment: DNA damage by induction of phosphorylated H2AX (western blot); format: cell-based; conditions: cisplatin
Text: as §3, §2

[5] = test system: NT2/D1 cells; experiment: Gene expression microarray with PAM cluster analysis (Tables 1-5); format: cell-based, human
Description: The cisplatin treatment protocol has been previously described (Kerley-Hamilton et al. 2005. Oncogene 24:6090-6100).
The same effect was not observed in cells treated with cisplatin; gene expression levels were not dramatically altered in cisplatin-treated cells. […] The genes clustered into distinct patterns.
Next, partitioning around medoids (PAM) analysis was performed on the 1130 genes whose expression levels changed by 1.5-fold or greater as compared to control treatment. […] Changes in gene expression levels of representative genes for each cluster were confirmed in independent samples by real-time PCR (FIG. 10).
(§4) Expression analysis was performed on the […] HumanHT-12 v3 or […] HumanHT-12 v4 bead chip arrays ([…]) and scanned on the BeadArray Reader ([…]) according to manufacturer's instructions.

[6] = test system: NT2 cells; experiment: Gene set enrichment analysis (GSEA) of microarray data (Table 6); format: cell-based, human; conditions: Gene Sets Enriched in NT2 Cells with Cisplatin Treatment (0.5 μM for 3 days)
Description: Gene set enrichment analysis (GSEA) was performed.
as §4

N.N.[Cl][Pt][Cl] [cisplatin]
effects on cell viability and proliferation ([1]; after 1 day of cisplatin treatment): minimal
effects on cell viability and proliferation ([1]; by day two of cisplatin treatment): robust anti-proliferation and cell death effects
apoptotic responses (PARP cleavage, sub G1 DNA content) [2]: induces these responses only in cisplatin-sensitive NT2/D1 cells
PARP cleavage [3]: does not induce PARP cleavage
induction of phospho-H2AX [4]: can induce phospho-H2AX
Cluster 2: unique genes whose expression levels were increased only by cisplatin treatment ([5]; 0.5 μM cisplatin 6 hours, 24 hour recovery): 81 genes
Cluster 3: genes upregulated by both decitabine treatment and cisplatin treatment ([5]; 1.5-fold or greater): 71 genes
Cluster 5: genes down-regulated by both decitabine treatment and cisplatin treatment ([5]; 1.5-fold or greater): 88 genes
NES, AMIT_EGF_RESPONSE_120_MCF10A [6]: −2.2779
NES, AMIT_EGF_RESPONSE_480_HELA [6]: −2.5999
NES, AMUNDSON_DNA_DAMAGE_RESPONSE_TP53 [6]: −2.2828
NES, CONCANNON_APOPTOSIS_BY_EPOXOMICIN_UP [6]: −2.2899
NES, DACOSTA_UV_RESPONSE_VIA_ERCC3_UP [6]: −2.3411
NES, INGA_TP53_TARGETS [6]: −2.3095
NES, KANNAN_TP53_TARGETS_UP [6]: −2.5961
NES, KERLEY_RESPONSE_TO_CISPLATIN_UP [6]: −3.0393
NES, SCHAVOLT_TARGETS_OF_TP53_AND_TP63 [6]: −2.4114
NES, WEIGEL_OXIDATIVE_STRESS_RESPONSE [6]: −2.3010
